Experimental data as given in patent US20210145768A1, “MODULATING IMMUNE RESPONSE VIA TARGETING OF OLFACTORY RECEPTOR ACTIVITY” (La Jolla Institute for Allergy and Immunology, priority 2018, published 2021).

What was measured:
Olfr2 [1] = molecular target: T1, Olfr2 (Mus musculus, UniProt Q9QWU6); assay: Inflammatory gene expression (real time PCR) in explanted whole aortas treated with octanal, citral, LPS; assay type: cell-based; design: Olfr2 expression was confirmed at the protein level on F4/80^+ vascular macrophages; from tissue; host or cells: explanted whole aortas, digested aortic cell suspensions (F4/80+ vascular macrophages) and blood monocytes of Apoe-/- C57BL/6J mice; living Apoe-/- mice for the in vivo study; details: dose response 3, 10, 30 μM octanal, 12 h
T1 sequence (Q9QWU6 1-327): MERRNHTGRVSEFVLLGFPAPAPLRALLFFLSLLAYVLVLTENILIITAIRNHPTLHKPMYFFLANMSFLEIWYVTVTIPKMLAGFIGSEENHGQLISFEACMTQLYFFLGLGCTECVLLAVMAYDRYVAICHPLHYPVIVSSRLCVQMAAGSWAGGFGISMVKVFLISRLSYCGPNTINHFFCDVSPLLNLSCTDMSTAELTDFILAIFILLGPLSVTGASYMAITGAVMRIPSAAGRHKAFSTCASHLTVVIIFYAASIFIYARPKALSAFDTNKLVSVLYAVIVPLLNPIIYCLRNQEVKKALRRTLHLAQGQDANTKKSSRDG

OR6A2 = molecular target: T2, OR6A2 (Homo sapiens, UniProt O95222); assay: Pro-inflammatory gene expression and cytokine secretion in hMDMs; assay type: cell-based; details: 12 h
T2 construct: OR6A2 protein surface expression in hMDMs was confirmed by flow cytometry; endogenous in cells; host or cells: human monocyte-derived macrophages from healthy donors (rhM-CSF, 7 d)
T2 sequence (O95222 1-327): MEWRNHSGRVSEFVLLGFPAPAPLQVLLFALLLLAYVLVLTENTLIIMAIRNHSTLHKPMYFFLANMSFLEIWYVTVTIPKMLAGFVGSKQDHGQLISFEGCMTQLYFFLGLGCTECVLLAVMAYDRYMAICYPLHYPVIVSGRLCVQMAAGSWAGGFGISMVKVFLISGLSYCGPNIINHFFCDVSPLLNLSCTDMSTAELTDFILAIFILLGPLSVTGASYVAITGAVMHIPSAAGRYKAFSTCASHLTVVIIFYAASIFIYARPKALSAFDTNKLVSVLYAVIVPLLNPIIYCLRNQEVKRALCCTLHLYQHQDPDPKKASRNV
Method: Peripheral blood mononuclear cells (PBMCs) were isolated from EDTA-venous blood of informed healthy donors (25-50 years old) from La Jolla Institute for Immunology's in-house Normal Blood Donor Program (NBDP), using a Ficoll-Paque (GE Healthcare) standard separation protocol. Human monocytes were enriched from PBMCs by the EasySep™ Human Monocyte Isolation Kit (StemCell) according to the manufacturer's instructions. Enriched monocytes were incubated with culture medium supplemented with 50 ng/ml rhM-CSF at 37° C. and 5% CO2 for 7 days. Differentiated macrophages at day 7 were used for further studies.
BMDMs and hMDMs were incubated in culture media for 12 h at 37° C. and 5% CO2 with Oct, (10 μM), LPS (500 ng/mL) alone or combined with Oct (LPS+Oct) and DMSO (0.1%) as a control and lysed with Qiazol (500 μL; Qiagen) Similarly, whole aortas incubated as previously described were transferred into Qiazol (500 μl; Qiagen) and digested with gentleMACS™ Dissociator (Miltenyi).
Total RNA was quantified using a nanodrop spectrophotometer (Peqlab) and 500 ng were reverse transcribed into cDNA using Omniscript reverse transcriptase (Qiagen). Real time PCR reactions were performed according to the RT^2 SYBR green gene expression assay protocol (Qiagen). RT2 SYBR Green qPCR master mix and premade RT^2 qPCR Primer Assays for mouse Olfr2, Rtp1, Rtp2, Ccl2, Ccl4, Tnf, Nos2 and Gapdh were used. […] The results were calculated applying the 2^−ΔΔCT method^32 using Gapdh/GAPDH as housekeeping gene.
(§1) Supernatants of stimulated cells and aortic tissue were analyzed by BD CBA Flex Sets (BD Biosciences) for mouse TNFα, CCL2, CCL4, IL-1β, or human TNF, IL6, and IL-1β according to the manufacturer's protocol. Samples were analyzed with LSR-II (BD Biosciences). Data was acquired with FACSDiva software (BD Biosciences) and analyzed with FCAP array software 3.0 (BD Biosciences).

Olfr2 [2] = molecular target: T1, Olfr2; assay: Secreted cytokines in supernatants of stimulated aortas (cytokine bead array); assay type: cell-based; design: Olfr2 expression was confirmed at the protein level on F4/80^+ vascular macrophages; from tissue; host or cells: explanted whole aortas, digested aortic cell suspensions (F4/80+ vascular macrophages) and blood monocytes of Apoe-/- C57BL/6J mice; living Apoe-/- mice for the in vivo study; details: octanal 10 μM + LPS 500 ng/mL, 12 h, cytometric bead array
Method: Apoe^−/− mice were fed WD for 2 weeks before sacrifice for aorta explant culture. Whole aortas were incubated in culture medium with DMSO (0.1% as a vehicle), octanal (Oct, 10 μM), LPS (500 ng/mL) alone or octanal and LPS combined (LPS+Oct) for 12 h at 37° C. and 5% CO2. Subsequently, aortas were collected and further processed as below discussed for RNA extraction, and flow cytometry analysis. Culture supernatants were collected, aliquoted, and frozen at −80° C. until further analysis.
as §1

Olfr2 [3] = molecular target: T1, Olfr2; details: Olfr2 binding of medium-chain aliphatic aldehydes; cited from earlier work

## CCCCCCCC=O [octanal]
Olfr2 [1]
  octanal concentration at which enhancement of LPS-induced expression peaks: 3 to 10 µM
OR6A2; LPS 500 ng/mL + octanal 10 μM
  LPS-induced expression of TNF, IL6 and NOS2 in hMDMs: enhanced the LPS-induced expression
OR6A2; LPS + octanal, cytokine bead array
  secretion of inflammatory molecules (IL6, TNF) in hMDM supernatant: enhanced
OR6A2; octanal 10 μM
  mRNA expression of TNF, IL6 and NOS2 in hMDMs: induced mRNA expression
Olfr2 [2]
  secretion of TNF, CCL2 and CCL4 protein into supernatant of treated aortas: enhanced production
Olfr2 [2]; listed as Octanal
  secretion of TNF, CCL2 and CCL4 protein into supernatant of treated aortas: enhanced the secretion
Olfr2 [3]
  EC50: ~10 µM
